Reference: article PMC7927808 (Antimicrobial Agents and Chemotherapy, 2020)

Tests used:
[1] = test system: S. aureus N315 pRB474-lugIEFGH; assay: MIC determination, broth microdilution in BM; type: cell-based, Staphylococcus aureus; details: for Effect of constitutive LugIEFGH expression on S. aureus susceptibility (in words): S. aureus pRB474-lugIEFGH compared with S. aureus pRB474 (Fig. 4); for MIC S. aureus pRB474-lugIEFGH: Table S2, mean MIC in BM-medium, 37°C, 24 h, 75% growth reduction, at least three independent experiments; for Ratio of MICs, S. aureus pRB474-lugIEFGH versus S. aureus pRB474: Table S2 / Fig. 4b, BM-medium
Procedure: (§1) Further strains used for MIC determination were S. aureus N315 with plasmids pRB474, pRB474-lugI, pRB474-lugEF, pRB474-lugIEF, pRB474-lugGH, pRB474-lugIGH, pRB474-lugEFGH, and pRB474-lugIEFGH.
(§2) If necessary, antibiotic was used at a concentration of 10 μg ml^−1 for chloramphenicol.
(§3) Strains used for MIC determinations were grown overnight in BM, with chloramphenicol for plasmid-containing strains, under continuous shaking at 37°C. Each strain was adjusted to OD600 of 0.0625 in BM. The antimicrobial molecule stock solutions were serially diluted in BM in 96-well microtiter plates. Each well with 100 μl medium, and chloramphenicol, if required, was inoculated with 2 μl of the OD600 of 0.0625 bacterial stock solution. The plates were incubated at 37°C for 24 h under continuous shaking (160 rpm). The OD600 of each well was measured with a microplate reader, and the concentration leading to a 75% growth reduction was calculated and defined as the MIC value.

S. aureus N315 pRB474 = assay: MIC determination, broth microdilution in BM; type: cell-based, Staphylococcus aureus; details: Table S2, mean MIC in BM-medium; empty vector strain; 37°C, 24 h, 75% growth reduction; at least three independent experiments
Procedure: as §1, §2, §3

Molecule	Effect of constitutive LugIEFGH expression on S. aureus susceptibility (in words) [1]	MIC S. aureus pRB474-lugIEFGH [1] [µg/mL]	Ratio of MICs, S. aureus pRB474-lugIEFGH versus S. aureus pRB474 [1]	MIC S. aureus pRB474 (S. aureus N315 pRB474) [µg/mL]
2-Ala-lugdunin	no resistance against the 2-Ala congener was conferred	39.9	0.99	40.2
6-Trp-lugdunin	Similar, though even less pronounced	31.1	1.89	16.4
CO[C@@H]1C[C@@H](C[C@H]2CC[C@H](C)[C@H]([C@@H](C)C(=O)O)O2)O[C@]2(O[C@](C)([C@H]3CC[C@@](C)([C@@H]4O[C@@H]([C@H]5O[C@@](O)(CO)[C@H](C)C[C@@H]5C)C[C@@H]4C)O3)C[C@H]2C)[C@@H]1C [nigericin]	did not affect the susceptibility	0.25	1.00	0.25
gramicidin S	did not affect the susceptibility	2.74	1.00	2.75
N#CC(C#N)=NNc1cccc(Cl)c1 [CCCP, carbonyl cyanide m-chlorophenylhydrazone]	did not affect the susceptibility	0.64	1.02	0.63
daptomycin	did not affect the susceptibility	2.17	1	2.17
enantio-lugdunin	some degree of resistance	69.8	2.23	31.3
